Experimental data: patent US20250154198A1, “PEPTIDE INHIBITORS OF INTERLEUKIN-23 RECEPTOR” (Zealand Pharma A/S, priority 2021, published 2025)
Like-named read-outs stand apart in the source and are kept apart here. *1 amine or outer side, *2 acyl side, *3 side chain or, on linkers, in order; H or OH if unused. Where a SMILES comes first, the peptide text is derived from it. Bridges are numbered along the chain shown (N, C = ends). [ ]: non-standard residue; d: D form. 1,3‑dibromopropan‑2‑one = linker (CAS 816-39-7) joining two Cys as 1,3-dithio-propan-2-one bridge -SCH2C(=O)CH2S-; Lys(N3) = [N-]=[N+]=NCCCC[C@H](N)C(=O)O; 2Nal = N[C@@H](Cc1ccc2ccccc2c1)C(=O)O; AEF = NCCOc1ccc(C[C@H](N)C(=O)O)cc1; αMeL = CC(C)C[C@](C)(N)C(=O)O; CH2COCH2 = O=C(C[*:1])C[*:2]; αMeK = C[C@](N)(CCCCN)C(=O)O; 3Amb = NCc1cccc(C(=O)O)c1; Pra = C#CC[C@H](N)C(=O)O; Abu = CC[C@H](N)C(=O)O

Assays:
[1] = Peptide stability in simulated gastric fluid (SGF); type: in vitro ADME; details: pig, simulated gastric fluid (SGF) with porcine pepsin, Table 3-3, porcine pepsin, pH 1.2, 37° C., 10 μM; for remaining at 1 h, 10 μM: read-out: SGF (% remaining 1 h); for remaining at 4 h, 10 μM: read-out: SGF (% remaining 4 h)
Procedure, shortened: (§1)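 Peptides incubated at 37°C with gentle shaking in SGF (NaCl, HCl, pH 1.2) or SIF (phosphate pH 6.8 with 10 g/L porcine pancreatin). Samples analysed by LC-HRMS; percent remaining at each timepoint calculated from absolute peak areas relative to time zero.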

[2] = molecular target: IL-23 mediated phospho-STAT3 formation in DB cells (Homo sapiens, UniProt Q5VWK5); assay: Functional inhibition of IL-23 mediated STAT3 signalling (phospho-STAT3 Tyr705 MSD) in DB cells; type: cell-based; details: DB cells, read-out: IC50 (pSTAT3)
Procedure, shortened: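 DB cells preincubated 15 min with compound at 37° C, then stimulated 90 min with hIL-23 at EC80. Lysate phospho-STAT3 measured by MSD, normalized to IL-23-alone and buffer wells; IC50 and maximal % inhibition from 4PL fit.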

human IL-23R = molecular target: T1, human IL-23R (Homo sapiens, UniProt Q5VWK5); assay: Binding assay (NanoBRET displacement of fluorophore-labelled reference compound) for estimating binding affinity to human IL-23R; details: for IL-23R inhibitory activity (in words): with reference to Ki and IC50 data of the Examples
T1 construct: UniProtKB—Q5VWK5, amino acids 22-629; secretion signal of the plasmid (Promega N1371); expressed in transfected cells
T1 sequence (Q5VWK5 22-629): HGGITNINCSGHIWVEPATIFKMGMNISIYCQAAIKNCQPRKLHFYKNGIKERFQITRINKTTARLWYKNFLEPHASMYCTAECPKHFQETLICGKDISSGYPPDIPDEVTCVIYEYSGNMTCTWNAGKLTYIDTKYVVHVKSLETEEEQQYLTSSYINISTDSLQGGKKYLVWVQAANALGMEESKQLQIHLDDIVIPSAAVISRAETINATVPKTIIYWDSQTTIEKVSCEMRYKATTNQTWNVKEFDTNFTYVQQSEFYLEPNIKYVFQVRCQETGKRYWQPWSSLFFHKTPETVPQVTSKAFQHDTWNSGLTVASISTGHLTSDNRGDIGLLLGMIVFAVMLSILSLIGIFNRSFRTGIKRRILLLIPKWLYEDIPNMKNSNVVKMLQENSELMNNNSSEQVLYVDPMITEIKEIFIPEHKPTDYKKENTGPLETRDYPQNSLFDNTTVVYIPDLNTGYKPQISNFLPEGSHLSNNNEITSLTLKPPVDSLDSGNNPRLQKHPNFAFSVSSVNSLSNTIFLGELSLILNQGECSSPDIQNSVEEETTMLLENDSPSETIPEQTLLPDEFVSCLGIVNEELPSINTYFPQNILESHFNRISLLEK

[3] = Peptide stability in simulated intestinal fluid (SIF); type: in vitro ADME; details: pig, simulated intestinal fluid (SIF) with porcine pancreatin, Table 3-2, porcine pancreatin, pH 6.8, 37° C., 10 μM; for remaining at 1 h, 10 μM: read-out: SIF (% remaining 1 h); for remaining at 4 h, 10 μM: read-out: SIF (% remaining 4 h)
Procedure, shortened: as §1

[4] = molecular target: T2, Nluc-IL23R fusion protein (human, UniProt Q5VWK5 22-629); assay: BRET displacement of TAMRA-labelled peptide, Nluc-IL23R membranes
T2 construct: range 22-629; Stably expressed in HEK293 cells; also called hIL-23R; human IL-23R fused to a Nanoluc luciferase enzyme; not shown: Nanoluc luciferase (Promega N1371 plasmid) at the N-terminus
T2 sequence (looked up): T1 sequence (Q5VWK5 22-629)

[5] = molecular target: T3, human IL-23R endogenously expressed on DB cells (CRL-2289) (human, UniProt Q5VWK5 24-629); assay: cell-based or functional assay
T3 sequence (looked up): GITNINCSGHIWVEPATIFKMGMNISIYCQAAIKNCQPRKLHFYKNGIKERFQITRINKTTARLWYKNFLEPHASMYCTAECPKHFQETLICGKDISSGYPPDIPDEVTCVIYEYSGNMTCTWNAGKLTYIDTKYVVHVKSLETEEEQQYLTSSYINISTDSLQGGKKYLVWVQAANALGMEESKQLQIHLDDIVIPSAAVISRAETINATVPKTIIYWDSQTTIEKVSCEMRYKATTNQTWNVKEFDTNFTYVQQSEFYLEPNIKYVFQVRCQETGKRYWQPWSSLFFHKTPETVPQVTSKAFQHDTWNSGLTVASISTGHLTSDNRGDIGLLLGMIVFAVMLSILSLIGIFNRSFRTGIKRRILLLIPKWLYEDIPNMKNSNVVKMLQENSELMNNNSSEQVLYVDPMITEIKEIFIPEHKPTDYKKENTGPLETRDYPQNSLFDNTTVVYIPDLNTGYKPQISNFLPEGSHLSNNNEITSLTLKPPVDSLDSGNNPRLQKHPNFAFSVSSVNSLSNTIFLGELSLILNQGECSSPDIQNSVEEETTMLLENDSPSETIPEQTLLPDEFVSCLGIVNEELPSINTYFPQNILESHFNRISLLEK

[6] = Table 3-1, read-out: Ki hIL-23R

CC(=O)N[C@@H](CC(=O)O)C(=O)N[C@H]1CCC(=O)NCCCC[C@@H](C(=O)N[C@@H](CCCNC(=N)N)C(N)=O)NC(=O)[C@H](CC(C)C)NC(=O)[C@H](Cc2c[nH]c3ccccc23)NC(=O)[C@H](Cc2c[nH]c3ccccc23)NC(=O)[C@@H]2CSCC(=O)CSC[C@H](NC(=O)[C@H](CO)NC1=O)C(=O)N[C@@H](Cc1c[nH]c3ccccc13)C(=O)N2 [Ref 6, [Ac]-DE(1c)SC(2a)WC(2a)WWLK(1c)R-[NH2], reference compound] (HELM PEPTIDE1{[ac].D.E.S.C.W.C.W.W.L.K.R.[am]}|CHEM1{[O=C(C[*:1])C[*:2]]}$PEPTIDE1,PEPTIDE1,3:R3-11:R3|PEPTIDE1,CHEM1,5:R3-1:R1|PEPTIDE1,CHEM1,7:R3-1:R2$$$V2.0)
remaining at 1 h, 10 μM [1]: 0% | remaining at 4 h, 10 μM [1]: 0% | IC50 ([2]; Table 3-1): > 1000 nM | Ki (human IL-23R; [6]): > 1000 nM | IL-23R inhibitory activity (in words) (human IL-23R): inactive | remaining at 1 h, 10 μM [3]: 0% | remaining at 4 h, 10 μM [3]: 0%

CC(=O)N[C@@H](CC(=O)O)C(=O)N[C@H]1CCC(=O)NCCCC[C@@H](C(=O)N[C@@H](CCCNC(=N)N)C(N)=O)NC(=O)[C@H](CC(C)C)NC(=O)[C@H](Cc2c[nH]c3ccccc23)NC(=O)[C@H](Cc2c[nH]c3ccccc23)NC(=O)[C@@H]2CSCC(=O)CSC[C@H](NC1=O)C(=O)N[C@@H](Cc1c[nH]c3ccccc13)C(=O)N[C@@H](CCC(N)=O)C(=O)N2 [Ref 5, [Ac]-DE(1c)C(2a)WQC(2a)WWLK(1c)R-[NH2], reference compound] (HELM PEPTIDE1{[ac].D.E.C.W.Q.C.W.W.L.K.R.[am]}|CHEM1{[O=C(C[*:1])C[*:2]]}$PEPTIDE1,PEPTIDE1,3:R3-11:R3|PEPTIDE1,CHEM1,4:R3-1:R1|PEPTIDE1,CHEM1,7:R3-1:R2$$$V2.0)
remaining at 1 h, 10 μM [1]: 1% | remaining at 4 h, 10 μM [1]: 0% | IC50 ([2]; Table 3-1): > 1000 nM | Ki (human IL-23R; [6]): > 1000 nM | IL-23R inhibitory activity (in words) (human IL-23R): inactive | remaining at 1 h, 10 μM [3]: 0% | remaining at 4 h, 10 μM [3]: 0%

CC(=O)N[C@@H](CC(=O)O)C(=O)N[C@H]1CCCCNC(=O)CC[C@@H](C(=O)N[C@@H](CCCNC(=N)N)C(N)=O)NC(=O)[C@H](CC(C)C)NC(=O)[C@H](Cc2c[nH]c3ccccc23)NC(=O)[C@H](Cc2c[nH]c3ccccc23)NC(=O)[C@@H]2CSCC(=O)CSC[C@H](NC(=O)[C@H](CO)NC1=O)C(=O)N[C@@H](Cc1c[nH]c3ccccc13)C(=O)N[C@@H](CCC(N)=O)C(=O)N2 [Compound 7, [Ac]-DK(1c)SC(2a)WQC(2a)WWLE(1c)R-[NH2]] (HELM PEPTIDE1{[ac].D.K.S.C.W.Q.C.W.W.L.E.R.[am]}|CHEM1{[O=C(C[*:1])C[*:2]]}$PEPTIDE1,PEPTIDE1,3:R3-12:R3|PEPTIDE1,CHEM1,5:R3-1:R1|PEPTIDE1,CHEM1,8:R3-1:R2$$$V2.0)
remaining at 1 h, 10 μM [1]: 0% | remaining at 4 h, 10 μM [1]: 0% | IC50 ([2]; Table 2-3b): 159 nM | potency depending on location of the amide bond in the [2,11] lactam bridge (in words) (human IL-23R; Compound 7 (amide closer to position 11) versus Compound 4 (closer to position 2), Table 2-3b): more active | Ki (human IL-23R; Table 2-3b, read-out: Ki IL-23R): 26.8 nM | remaining at 1 h, 10 μM [3]: 0% | remaining at 4 h, 10 μM [3]: 0%

B1: Compound 11 (peptide)
peptide: Ac-DESCWQCWWLK-NH2
modifications: lactam 2-11; linker 4-7 via 1,3‑dibromopropan‑2‑one
Ki [4]: 706 nM | IC50 (pSTAT3) [5]: > 1 µM

B2: Compound C (peptide)
peptide: Ac-[Abu]QTWQC[AEF]W[αMeK]ENG-NH2
modifications: thioether 1-6
Ki [4]: 2.11 nM | IC50 (pSTAT3) [5]: 13.8 nM

B3: Compound 3 (peptide)
peptide: H-DCSCWECWWLCR-NH2
modifications: linker 2-11, 4-7 via CH2COCH2
Ki [4]: 205 nM

B4: Compound 23 (peptide)
peptide: Ac-DKS[Lys(N3)]WQ[Pra]W[2Nal]LER-NH2
modifications: lactam 2-11; triazole 4-7
Ki [4]: 117 nM

B5: Compound 33 (peptide)
peptide: Ac-CTCWECWW[αMeL]CS-NH2
modifications: linker 1-10, 3-6 via CH2COCH2
SMILES: CC(=O)N[C@H]1CSCC(=O)CSC[C@@H](C(=O)N[C@@H](CO)C(N)=O)NC(=O)[C@](C)(CC(C)C)NC(=O)[C@H](Cc2c[nH]c3ccccc23)NC(=O)[C@H](Cc2c[nH]c3ccccc23)NC(=O)[C@@H]2CSCC(=O)CSC[C@H](NC(=O)[C@H]([C@@H](C)O)NC1=O)C(=O)N[C@@H](Cc1c[nH]c3ccccc13)C(=O)N[C@@H](CCC(=O)O)C(=O)N2
Ki [4]: 189 nM

B6: Compound 34 (peptide)
peptide: GKTCWECWWXES
HELM: PEPTIDE1{[ac].G.K.T.C.W.E.C.W.W.[CC(C)C[C@](C)(N[*:1])C(=O)[*:2]].E.S.[am]}|CHEM1{[O=C(C[*:1])C[*:2]]}$PEPTIDE1,PEPTIDE1,3:R3-12:R3|PEPTIDE1,CHEM1,5:R3-1:R1|PEPTIDE1,CHEM1,8:R3-1:R2$$$V2.0
SMILES: CC(=O)NCC(=O)N[C@H]1CCCCNC(=O)CC[C@@H](C(=O)N[C@@H](CO)C(N)=O)NC(=O)[C@](C)(CC(C)C)NC(=O)[C@H](Cc2c[nH]c3ccccc23)NC(=O)[C@H](Cc2c[nH]c3ccccc23)NC(=O)[C@@H]2CSCC(=O)CSC[C@H](NC(=O)[C@H]([C@@H](C)O)NC1=O)C(=O)N[C@@H](Cc1c[nH]c3ccccc13)C(=O)N[C@@H](CCC(=O)O)C(=O)N2
Ki [4]: 65 nM

B7: Compound 35 (peptide)
peptide: Ac-GCTCWECW[2Nal][αMeL]CR-NH2
modifications: linker 2-11, 4-7 via CH2COCH2
SMILES: CC(=O)NCC(=O)N[C@H]1CSCC(=O)CSC[C@@H](C(=O)N[C@@H](CCCNC(=N)N)C(N)=O)NC(=O)[C@](C)(CC(C)C)NC(=O)[C@H](Cc2ccc3ccccc3c2)NC(=O)[C@H](Cc2c[nH]c3ccccc23)NC(=O)[C@@H]2CSCC(=O)CSC[C@H](NC(=O)[C@H]([C@@H](C)O)NC1=O)C(=O)N[C@@H](Cc1c[nH]c3ccccc13)C(=O)N[C@@H](CCC(=O)O)C(=O)N2
Ki [4]: 41.2 nM

B8: Compound 40 (peptide)
peptide: [3Amb]SCWQCW[2Nal][αMeL]ER-NH2
modifications: lactam N-10; linker 3-6 via CH2COCH2
SMILES: CC(C)C[C@]1(C)NC(=O)[C@H](Cc2ccc3ccccc3c2)NC(=O)[C@H](Cc2c[nH]c3ccccc23)NC(=O)[C@@H]2CSCC(=O)CSC[C@H](NC(=O)[C@H](CO)NC(=O)c3cccc(c3)CNC(=O)CC[C@@H](C(=O)N[C@@H](CCCNC(=N)N)C(N)=O)NC1=O)C(=O)N[C@@H](Cc1c[nH]c3ccccc13)C(=O)N[C@@H](CCC(N)=O)C(=O)N2
Ki [4]: 18.1 nM

B9: Compound 54 (peptide)
peptide: Ac-KSCWQC[AEF][2Nal]LER-NH2
modifications: lactam 1-10; disulfide 3-6
Ki [4]: 178 nM
